Laboratory results reported in patent US20240083873A1, “PYRIMIDINE CARBOXAMIDE COMPOUND AND APPLICATION THEREOF” (SHANGHAI MEIYUE BIOTECH DEVELOPMENT CO., LTD, priority 2020, published 2024).
One block for each compound: values may come before it.

Legend:
[1] = biological target: recombinant human Vanin-1 (Homo sapiens (Human), UniProt O95497); test: Vanin-1 recombinant enzyme activity inhibition assay; assay type: biochemical; conditions: Pantetheine 7-amino-4-trifluoromethylcoumarin substrate 45 μM, data at the 30th minute
Chain of recombinant human Vanin-1 (O95497 22-513): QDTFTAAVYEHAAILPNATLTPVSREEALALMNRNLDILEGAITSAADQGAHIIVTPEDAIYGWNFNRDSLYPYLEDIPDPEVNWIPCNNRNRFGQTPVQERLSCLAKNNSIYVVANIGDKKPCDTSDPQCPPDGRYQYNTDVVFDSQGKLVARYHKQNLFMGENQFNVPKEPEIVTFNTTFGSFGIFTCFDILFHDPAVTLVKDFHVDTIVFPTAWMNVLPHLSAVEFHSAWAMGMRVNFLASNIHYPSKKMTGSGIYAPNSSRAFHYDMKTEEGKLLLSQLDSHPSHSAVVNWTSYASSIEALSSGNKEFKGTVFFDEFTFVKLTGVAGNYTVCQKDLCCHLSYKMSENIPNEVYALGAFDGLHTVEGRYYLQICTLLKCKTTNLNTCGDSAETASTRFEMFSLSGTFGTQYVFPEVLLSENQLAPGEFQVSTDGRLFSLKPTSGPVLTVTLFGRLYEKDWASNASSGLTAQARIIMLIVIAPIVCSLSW
Description: 1. Vanin-1 Recombinant Enzyme Activity Inhibition Assay
A certain mass of the compound was weighed precisely, and prepared with DMSO and reaction buffer (50 mM Tris base, 50 mM KCl, 1.6 mM cysteamine, 0.005% Brij 35, pH 8.0, prepared when using) to a maximum concentration of 10000 nM, then diluted in a 4-fold gradient, and prepared into 10 compound working solutions with different concentrations; • for the activity inhibition reaction of recombinant human Vanin-1 (Biorab, JN0618), 2.5 μL of compound working solution and 5 μL of recombinant human Vanin-1 protein were first mixed. […] Raw data at the 30th minute were collected for data processing and analysis, then the concentration-effect curve was fitted with GraphPad Prism 8 software, and the IC50 of the compound concentration was calculated.

[2] = In vivo pharmacokinetic evaluation in mice; conditions: C57BL6 mice; for Peak concentration Cmax: plasma
Text: 2. In Vivo Pharmacokinetic Evaluation in Mice
To detect pharmacokinetic parameters of the compounds of the present disclosure in C57BL6 mice
The vehicle used in the experiment was: DMSO:Solutol:PBS=5%:25%:70% (v/v/v). Preparation method: The required compound was weighed accurately, added with a certain volume of DMSO in a certain proportion, vortex-mixed until completely dissolved, then added successively with Solutol and PBS according to the above proportion, and mixed well. The vehicles used in the intravenous (iv) administration group and oral (po) administration group were the same vehicles in the experiment. The intravenous dose was 1 mpk and the oral dose was 2 mpk. Experimental blood collection time points: IV group: 0.083, 0.25, 0.5, 1, 2, 4, 7, 24 h. PO group: 200 μL of whole blood was collected from jugular vein at each time point of 0.25, 0.5, 1, 2, 4, 7 and 24 h, anticoagulated with EDTA-K2, and immediately centrifuged at 4000 rpm for 5 minutes at 4° C. The supernatant was taken and the samples were frozen and stored in a refrigerator at −80° C. Processing of plasma samples: The sample was precipitated with ACN/MeOH (1:1, v/v) precipitant containing internal standard, then centrifuged at 14000 rpm for 5 minutes. The supernatant was taken into LC-MS/MS (AB Triple Quard 5500) for analysis to obtain plasma concentrations, and parameters were calculated by the non-compartmental model of Winnolin 8.1 version.

[3] = intragastric administration group po, 2 mpk
[4] = intravenous injection group iv, 1 mpk

SMILES: Cc1cnc2c(c1)C(Nc1ncc(C(=O)N3CCC4(CCOCC4)C3)cn1)CC2 (centres unmarked) [Compound 21]
IC50 [1]: 6.9 nM

SMILES: O=C(c1cnc(NC2CCc3ncccc32)nc1)N1CCC2(CCOCC2)C1 (centres unmarked) [Compound 2]
IC50 [1]: 8.9 nM

SMILES: Cc1ccc2c(n1)CCC2Nc1ncc(C(=O)N2CCC3(CCOCC3)C2)cn1 (centres unmarked) [Compound 19]
IC50 [1]: 2.9 nM | Area under the curve AUC0-7h [2, 3]: 1459.29 ng·h/mL | Clearance rate CL [2, 3]: 21.9452 mL/min/kg | Distributed solvent Vd [2, 3]: 2.91 L/kg | Half-life T1/2 [2, 3]: 1.52 h | Peak concentration Cmax [2, 3]: 766.60 ng/mL

SMILES: O=C(c1cnc(NC2CCc3ncc(Br)cc32)nc1)N1CCC2(CCOCC2)C1 (centres unmarked) [Compound 23]
IC50 [1]: 1.7 nM

Second part, the compound after the results:

IC50 [1]: 2 nM
SMILES: CCC(=O)N(C)C1CCN(C(=O)c2cnc(N[C@@H]3CCc4ncccc43)nc2)C1 (some centres unmarked) [Compound 26]

IC50 [1]: 4.2 nM
SMILES: CCC1(CC)CCN(C(=O)c2cnc(N[C@@H]3CCc4ncccc43)nc2)C1 [Compound 13]

IC50 [1]: 0.6 nM | Area under the curve AUC0-7h [2, 3]: 684.31 ng·h/mL | Clearance rate CL [2, 3]: 48.6622 mL/min/kg | Distributed solvent Vd [2, 3]: 4.55 L/kg | Half-life T1/2 [2, 3]: 1.05 h | Peak concentration Cmax [2, 3]: 539.37 ng/mL | Area under the curve AUC0-7h [2, 4]: 557.60 ng·h/mL | Clearance rate CL [2, 4]: 33.857 mL/min/kg | Distributed solvent Vd [2, 4]: 2.60 L/kg | Half-life T1/2 [2, 4]: 0.93 h | Peak concentration Cmax [2, 4]: 742.33 ng/mL | Bioavailability F % ([2]; po 2 mpk vs iv 1 mpk): 61.4%
SMILES: CC(=O)N(C)C1CCN(C(=O)c2cnc(N[C@@H]3CCc4ncccc43)nc2)C1 (some centres unmarked) [Compound 17]
